Experimental data: ChEMBL document CHEMBL1126261, “Synthesis and antimuscarinic properties of some N-substituted 5-(aminomethyl)-3,3-diphenyl-2(3H)-furanones” (J Med Chem, 1992)
Where “and” joins values, the source holds several entries; their conditions need not be identical. Equal entries are not always repeated.

Columns and labels:
[1] = target: Muscarinic acetylcholine receptor M3 (Cavia porcellus) (UniProt Q8VH26); conditions: Urinary bladder
Description: The compound was tested for urinary bladder contraction ability in guinea pig.

[2] = target: Muscarinic acetylcholine receptor M3 (Cavia porcellus) (UniProt Q8VH26); conditions: Urine
Description: Urinary bladder contraction ability in guinea pig by intravenous dose

[3] = target: Muscarinic acetylcholine receptor (Homo sapiens) (UniProt P20309+P08173+P11229+P08172+P08912)

Muscarinic acetylcholine receptor M3 (Cavia porcellus), sequence (Q8VH26 1-587): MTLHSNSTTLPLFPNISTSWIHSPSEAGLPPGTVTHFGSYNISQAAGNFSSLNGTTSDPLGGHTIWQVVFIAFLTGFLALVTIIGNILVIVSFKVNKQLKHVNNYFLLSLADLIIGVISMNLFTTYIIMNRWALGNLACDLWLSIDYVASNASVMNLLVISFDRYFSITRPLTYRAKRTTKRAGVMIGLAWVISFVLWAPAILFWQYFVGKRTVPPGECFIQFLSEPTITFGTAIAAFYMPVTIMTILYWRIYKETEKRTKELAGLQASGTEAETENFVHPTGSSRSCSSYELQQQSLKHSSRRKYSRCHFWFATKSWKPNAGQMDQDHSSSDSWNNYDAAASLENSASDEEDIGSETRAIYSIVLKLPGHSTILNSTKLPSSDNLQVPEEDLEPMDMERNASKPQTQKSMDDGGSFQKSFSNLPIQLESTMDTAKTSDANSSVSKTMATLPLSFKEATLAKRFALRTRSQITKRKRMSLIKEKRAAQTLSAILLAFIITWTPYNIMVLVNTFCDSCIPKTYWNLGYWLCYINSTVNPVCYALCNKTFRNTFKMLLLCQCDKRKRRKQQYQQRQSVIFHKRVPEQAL

SMILES | ID50 [1] | ID50 [2] [mg/kg] | ID50 [3] [mg/kg]
Cc1ccc[n+]2ccn(CC3CC(c4ccccc4)(c4ccccc4)C(=O)O3)c12 (stereo not given) | – | 1.7 | 4.42
C[n+]1ccn(CC2CC(c3ccccc3)(c3ccccc3)C(=O)O2)c1C(C)(C)C (stereo not given) | 0.28 mg/kg | – | 0.29
CCN(CC)CC1CC(c2ccccc2)(c2ccccc2)C(=O)O1 (stereo not given) | – | 16.2 | > 100
CC1CCC[n+]2ccn(CC3CC(c4ccccc4)(c4ccccc4)C(=O)O3)c21 (stereo not given) | 0.045 mg/kg | – | 0.12
CN(C)CC1CC(c2ccccc2)(c2ccccc2)C(=O)O1 (stereo not given) | – | > 10 | 61.6
C[N+](C)(C)CC1CC(c2ccccc2)(c2ccccc2)C(=O)O1 (stereo not given) | – | 0.64 | 4.6
O=C1OC(Cn2cc[n+]3c2CCC3)CC1(c1ccccc1)c1ccccc1 (stereo not given) | 2.1 mg/kg | – | 5.5
O=C1OC(Cn2cccn2)CC1(c1ccccc1)c1ccccc1 (stereo not given) | > 10 mg/kg | – | 3.8
CCCc1n(CC2CC(c3ccccc3)(c3ccccc3)C(=O)O2)cc[n+]1C (stereo not given) | 0.9 mg/kg | – | 0.54
CN1[C@@H]2CC[C@H]1C[C@@H](OC(=O)C(CO)c1ccccc1)C2 (stereo not given in full) | 0.15 mg/kg | – | –
O=C1OC(Cn2cc[n+]3ccccc23)CC1(c1ccccc1)c1ccccc1 (stereo not given) | 5.2 mg/kg | – | 8

Further lines, results first:

ID50 [1] | ID50 [2] [mg/kg] | ID50 [3] [mg/kg] | SMILES
20 mg/kg and 8.5 mg/kg | – | – | CCc1nccn1CC1CC(c2ccccc2)(c2ccccc2)C(=O)O1 (stereo not given)
– | 1.3 | 5.3 | CCc1nccn1C[C@H]1CC(c2ccccc2)(c2ccccc2)C(=O)O1
3.6 mg/kg | – | 152 | CC(C)c1nccn1CC1CC(c2ccccc2)(c2ccccc2)C(=O)O1 (stereo in doubt; 22)
– | 0.03 | 0.02 | CC(C)c1n(CC2CC(c3ccccc3)(c3ccccc3)C(=O)O2)cc[n+]1C (stereo not given)
1.3 mg/kg | – | 0.74 | CC(C)(C)c1nccn1CC1CC(c2ccccc2)(c2ccccc2)C(=O)O1 (stereo not given)
1.9 mg/kg | – | 167 | CC(C)c1nccn1C[C@H]1CC(c2ccccc2)(c2ccccc2)C(=O)O1
– | 0.27 | 0.67 | CCc1n(CC2CC(c3ccccc3)(c3ccccc3)C(=O)O2)cc[n+]1C (stereo not given)
12.5 mg/kg | – | > 100 | CCCc1nccn1CC1CC(c2ccccc2)(c2ccccc2)C(=O)O1 (stereo not given)
30 mg/kg | – | > 100 | CC(C)c1nccn1CC1CC(c2ccccc2)(c2ccccc2)C(=O)O1 (stereo in doubt; 44)
29 mg/kg | – | 29 | Cc1nccn1CC1CC(c2ccccc2)(c2ccccc2)C(=O)O1 (stereo not given)
